Data reported in patent publication US12215085B2 (priority 2019, dated 2025).
Marks after values point to notes of the source that are not given here.

Legend:
[1] = Dynamic moisture sorption (DVS) hygroscopicity; type: physicochemical; conditions: 25° C.; begins to significantly absorb water at 90% relative humidity
Experimental: In order to evaluate the stability of Crystal Form A under different humidity conditions, a dynamic moisture sorption (DVS) test was carried out on the sample of Crystal Form A under the constant temperature condition of 25° C.

[2] = system: rats with common carotid artery occlusion-induced vascular dementia; test: Brain pathological examination, common carotid artery occlusion-induced vascular dementia rats; type: in vivo, rat; conditions: 1.4 mg/kg and 2.8 mg/kg
[3] = system: rats with beta-amyloid induced senile dementia; test: Water maze test, beta-amyloid induced senile dementia rats; type: in vivo, rat; conditions: for adopted strategy for reaching the platform (the peripheral type and the random type %) / orientation angle for reaching the platform / speed for reaching the platform / swimming path length for reaching the platform / time for reaching the platform: succinate; for orientation angle for reaching the platform / speed for reaching the platform / swimming path length for reaching the platform / time for reaching the platform: x ± s
mouse = test: Acute toxicity LD50, mouse; conditions: clinical daily dosage 8 mg/60 kg human/day, per kilogram body weight
[4] = Acute toxicity LD50, mouse; conditions: in vivo, po
mice = test: General pharmacological study in mice; type: in vivo
[5] = system: rats with beta-amyloid induced senile dementia; test: Brain pathological examination, beta-amyloid induced senile dementia rats; type: in vivo, rat
normal anesthetized dogs = test: General pharmacological indexes of normal anesthetized dog; type: in vivo; conditions: 0.8, 1.6 and 3.2 mg/kg
Text: Meanwhile, the influence of Crystal Form A of octahydroaminoacridine succinate on the general pharmacological indexes of the normal anesthetized dog was observed.

Wistar rats = test: Long-term toxicity, 27 weeks, Wistar rats
Text: 120 Wistar rats were used, 30 rats per group, wherein half of them were males and half were females. The administration route was ig administration, once per day, 6-day administration per week, and a 27-week test period.

[6] = 24 hours equilibrium solubility in water; type: physicochemical; conditions: thermodynamic from solid, room temperature, initial concentration about 100 mg/mL, read-out: 24 hours equilibrium solubility in H2O
Experimental: Step: 24 hours equilibrium solubility of the sample of Crystal Form A in water was tested at room temperature. In the experiment, after mixing the sample of crystal form with water to form a suspension (initial concentration was about 100 mg/mL), the stirring was carried out for 24 hours (1000 rpm) at room temperature, a supernatant obtained from the centrifugation was filtered and the solubility was measured, and the residual solid was subjected to the XRPD test.

[7] = system: rats with beta-amyloid induced senile dementia; test: Step-down test, beta-amyloid induced senile dementia rats; type: in vivo, rat; conditions: 2.8 mg/kg, P<0.05
rat = test: Acute toxicity LD50, rat; conditions: clinical daily dosage 8 mg/60 kg human/day, per kilogram body weight
Acute toxicity LD50, rat = conditions: in vivo, po
[8] = 0.7, 1.4 and 2.8 mg/kg, Day 7, P<0.05 or P<0.01
[9] = Day 1, 0.7 mg/kg intragastric, 0.7 mg/kg
[10] = Day 1, 1.4 mg/kg intragastric, 1.4 mg/kg
[11] = Day 1, 2.8 mg/kg intragastric, 2.8 mg/kg
[12] = Day 2, 0.7 mg/kg intragastric, 0.7 mg/kg
[13] = Day 2, 1.4 mg/kg intragastric, 1.4 mg/kg
[14] = Day 2, 2.8 mg/kg intragastric, 2.8 mg/kg
[15] = Day 3, 0.7 mg/kg intragastric, 0.7 mg/kg
[16] = Day 3, 1.4 mg/kg intragastric, 1.4 mg/kg
[17] = Day 3, 2.8 mg/kg intragastric, 2.8 mg/kg
[18] = Day 4, 0.7 mg/kg intragastric, 0.7 mg/kg
[19] = Day 4, 1.4 mg/kg intragastric, 1.4 mg/kg
[20] = Day 4, 2.8 mg/kg intragastric, 2.8 mg/kg
[21] = Day 5, 0.7 mg/kg intragastric, 0.7 mg/kg
[22] = Day 5, 1.4 mg/kg intragastric, 1.4 mg/kg
[23] = Day 5, 2.8 mg/kg intragastric, 2.8 mg/kg
[24] = Day 6, 0.7 mg/kg intragastric, 0.7 mg/kg
[25] = Day 6, 1.4 mg/kg intragastric, 1.4 mg/kg
[26] = Day 6, 2.8 mg/kg intragastric, 2.8 mg/kg

Nc1c2c(nc3c1CCCC3)CCCC2.O=C(O)CCC(=O)O [Crystal Form A, 9-amino-1,2,3,4,5,6,7,8-octahydroacridine succinate]
DVS weight gain [1]: up to 5.2%
pathological change of the common carotid artery occlusion-induced vascular dementia [2]: could relieve the pathological change
latent period for reaching the platform vs model group ([3]; 0.7 mg/kg, Day 1, P<0.05): obviously shortened
latent period for reaching the platform vs model group ([3]; 1.4 mg/kg, Day 1 to Day 6, P<0.05 or P<0.01): obviously shortened
swimming path length for reaching the platform vs model group ([3]; 1.4 mg/kg, Day 3 and Day 5, P<0.05): obviously shortened
percentage of the swimming path length in the platform area quadrants to the total swimming path length vs model group ([3]; 1.4 mg/kg, Day 7, P<0.05): obviously increased
residence time in the platform quadrants vs model group ([3]; 1.4 mg/kg, Day 7, P<0.05): obviously increased
orientation angle vs model group ([3]; 2.8 mg/kg, Day 2, Day 3, Day 5 and Day 6, P<0.05 or P<0.01): obviously decreased
latent period for reaching the platform vs model group ([3]; 2.8 mg/kg, Day 2 to Day 6, P<0.05 or P<0.01): obviously shortened
swimming path length for reaching the platform vs model group ([3]; 2.8 mg/kg, Day 5 and Day 6, P<0.05): obviously shortened
swimming speed vs model group ([3]; 0.7, 1.4 and 2.8 mg/kg, Day 1, P<0.05): obviously increased
average speed and orientation angle vs model group ([3]; 0.7, 1.4 and 2.8 mg/kg, Day 7): not obviously changed
number of rats crossing the platform within 2 minutes vs model group [3, 8]: obviously increased
residence time on the platform vs model group [3, 8]: obviously increased
conversion from the peripheral type and the random type to the tendency type and the linear type in the strategy for looking for the platform ([3]; 0.7, 1.4 and 2.8 mg/kg, P<0.05 or P<0.01): obviously increased
orientation angle vs model group ([3]; 0.7 and 1.4 mg/kg, Day 2, P<0.05): obviously decreased
adopted strategy for reaching the platform (the peripheral type and the random type %) [3, 9]: 87.50%
orientation angle for reaching the platform [3, 9]: 62.79 ± 19.80 °
speed for reaching the platform [3, 9]: 22.41 ± 7.84 cm/s
swimming path length for reaching the platform [3, 9]: 1169.52 ± 985.73 cm
time for reaching the platform [3, 9]: 51.79 ± 26.01 s
adopted strategy for reaching the platform (the peripheral type and the random type %) [3, 10]: 92.50%
orientation angle for reaching the platform [3, 10]: 77.42 ± 21.94 °
speed for reaching the platform [3, 10]: 21.16 ± 5.82 cm/s
swimming path length for reaching the platform [3, 10]: 1022.59 ± 558.57 cm
time for reaching the platform [3, 10]: 47.00 ± 19.96 s
adopted strategy for reaching the platform (the peripheral type and the random type %) [3, 11]: 95.50%
orientation angle for reaching the platform [3, 11]: 61.45 ± 13.71 °
speed for reaching the platform [3, 11]: 19.76 ± 2.88 cm/s
swimming path length for reaching the platform [3, 11]: 1215.28 ± 534.19 cm
time for reaching the platform [3, 11]: 65.22 ± 26.94 s
adopted strategy for reaching the platform (the peripheral type and the random type %) [3, 12]: 68.75%
orientation angle for reaching the platform [3, 12]: 48.33 ± 25.33 °
speed for reaching the platform [3, 12]: 28.34 ± 10.42 cm/s
swimming path length for reaching the platform [3, 12]: 762.15 ± 878.65 cm
time for reaching the platform [3, 12]: 29.20 ± 28.52 s
adopted strategy for reaching the platform (the peripheral type and the random type %) [3, 13]: 77.50%
orientation angle for reaching the platform [3, 13]: 53.95 ± 19.36 °
speed for reaching the platform [3, 13]: 24.65 ± 5.95 cm/s
swimming path length for reaching the platform [3, 13]: 657.63 ± 419.44 cm
time for reaching the platform [3, 13]: 29.60 ± 18.83 s
adopted strategy for reaching the platform (the peripheral type and the random type %) [3, 14]: 67.50* %
orientation angle for reaching the platform [3, 14]: 42.58 ± 17.57 °
speed for reaching the platform [3, 14]: 23.62 ± 5.04 cm/s
swimming path length for reaching the platform [3, 14]: 717.16 ± 484.50 cm
time for reaching the platform [3, 14]: 27.92 ± 18.96 s
adopted strategy for reaching the platform (the peripheral type and the random type %) [3, 15]: 87.50%
orientation angle for reaching the platform [3, 15]: 59.46 ± 34.15 °
speed for reaching the platform [3, 15]: 25.56 ± 10.30 cm/s
swimming path length for reaching the platform [3, 15]: 922.69 ± 927.53 cm
time for reaching the platform [3, 15]: 39.88 ± 39.00 s
adopted strategy for reaching the platform (the peripheral type and the random type %) [3, 16]: 70.50%
orientation angle for reaching the platform [3, 16]: 49.79 ± 16.12 °
speed for reaching the platform [3, 16]: 23.53 ± 5.74 cm/s
swimming path length for reaching the platform [3, 16]: 359.75 ± 164.16 cm
time for reaching the platform [3, 16]: 15.74 ± 5.83 s
adopted strategy for reaching the platform (the peripheral type and the random type %) [3, 17]: 70.00%
orientation angle for reaching the platform [3, 17]: 41.19 ± 18.30 °
speed for reaching the platform [3, 17]: 22.47 ± 2.59 cm/s
swimming path length for reaching the platform [3, 17]: 426.44 ± 213.56 cm
time for reaching the platform [3, 17]: 20.24 ± 10.26 s
adopted strategy for reaching the platform (the peripheral type and the random type %) [3, 18]: 64.50* %
orientation angle for reaching the platform [3, 18]: 47.21 ± 18.21 °
speed for reaching the platform [3, 18]: 24.92 ± 2.52 cm/s
swimming path length for reaching the platform [3, 18]: 806.38 ± 1014.62 cm
time for reaching the platform [3, 18]: 32.05 ± 39.88 s
adopted strategy for reaching the platform (the peripheral type and the random type %) [3, 19]: 77.50%
orientation angle for reaching the platform [3, 19]: 53.54 ± 25.57 °
speed for reaching the platform [3, 19]: 25.56 ± 4.54 cm/s
swimming path length for reaching the platform [3, 19]: 493.65 ± 256.60 cm
time for reaching the platform [3, 19]: 20.82 ± 11.32 s
adopted strategy for reaching the platform (the peripheral type and the random type %) [3, 20]: 67.50* %
orientation angle for reaching the platform [3, 20]: 47.22 ± 23.29 °
speed for reaching the platform [3, 20]: 27.31 ± 4.62 cm/s
swimming path length for reaching the platform [3, 20]: 600.43 ± 563.07 cm
time for reaching the platform [3, 20]: 22.73 ± 21.88 s
adopted strategy for reaching the platform (the peripheral type and the random type %) [3, 21]: 75.50* %
orientation angle for reaching the platform [3, 21]: 54.72 ± 24.68 °
speed for reaching the platform [3, 21]: 27.17 ± 13.51 cm/s
swimming path length for reaching the platform [3, 21]: 571.38 ± 716.43 cm
time for reaching the platform [3, 21]: 25.95 ± 33.84 s
adopted strategy for reaching the platform (the peripheral type and the random type %) [3, 22]: 57.50* %
orientation angle for reaching the platform [3, 22]: 53.41 ± 23.18 °
speed for reaching the platform [3, 22]: 20.14 ± 4.25 cm/s
swimming path length for reaching the platform [3, 22]: 278.26 ± 125.79 cm
time for reaching the platform [3, 22]: 14.95 ± 9.19 s
adopted strategy for reaching the platform (the peripheral type and the random type %) [3, 23]: 68.00** %
orientation angle for reaching the platform [3, 23]: 43.23 ± 15.80 °
speed for reaching the platform [3, 23]: 23.96 ± 4.94 cm/s
swimming path length for reaching the platform [3, 23]: 312.55 ± 230.50 cm
time for reaching the platform [3, 23]: 14.17 ± 11.56 s
adopted strategy for reaching the platform (the peripheral type and the random type %) [3, 24]: 65.50%
orientation angle for reaching the platform [3, 24]: 46.47 ± 18.69 °
speed for reaching the platform [3, 24]: 23.50 ± 9.00 cm/s
swimming path length for reaching the platform [3, 24]: 461.68 ± 417.67 cm
time for reaching the platform [3, 24]: 21.76 ± 23.11 s
adopted strategy for reaching the platform (the peripheral type and the random type %) [3, 25]: 68.50%
orientation angle for reaching the platform [3, 25]: 46.29 ± 22.64 °
speed for reaching the platform [3, 25]: 20.87 ± 4.35 cm/s
swimming path length for reaching the platform [3, 25]: 402.97 ± 434.93 cm
time for reaching the platform [3, 25]: 20.62 ± 22.63 s
adopted strategy for reaching the platform (the peripheral type and the random type %) [3, 26]: 52.50** %
orientation angle for reaching the platform [3, 26]: 40.91 ± 15.25 °
speed for reaching the platform [3, 26]: 24.73 ± 4.83 cm/s
swimming path length for reaching the platform [3, 26]: 252.87 ± 161.30 cm
time for reaching the platform [3, 26]: 10.70 ± 6.74 s
LD50 as multiple of the clinical daily dosage (mouse): ~499.5 times
LD50 [4]: 66.6 ± 3.3 mg/kg
general state, autonomous activity and coordinated movement of the mice (mice; 4, 8, 16 mg/kg once intragastric): no significant influence
sleep number of animals with subthreshold dose of pentobarbital sodium (mice; 4, 8 and 16 mg/kg once intragastric): no obvious influence
pathological damage of cerebral cortex and hippocampus caused by beta-amyloid ([5]; high-dose group (2.8 mg/kg)): could relieve the pathological damage
pathological changes of cortex and hippocampus compared with the model group ([5]; low and medium-dose groups (0.7 and 1.4 mg/kg)): no obvious difference
respiratory frequency, respiratory amplitude, arterial blood pressure, heart rate and electrocardiogram (normal anesthetized dogs): no obvious influence
toxic target organ for long-term administration (Wistar rats; 27 weeks intragastric): could be the liver, but reversible
animals died (Wistar rats; high-dose group 30 mg/kg, 27 weeks): 5 animals
non-toxic reaction dose (Wistar rats; intragastric, 27 weeks): 15 mg/kg
body weight of male and female rats vs control group (Wistar rats; rat, in vivo): obviously reduced
electrocardiogram PR interval, QRS interval, QT interval, T wave, heart rate vs control group (Wistar rats; rat, in vivo): no significant difference
general and microscopic examination of all organs (Wistar rats; rat, in vivo): No obvious pathological changes caused by the drug toxicity
general state, behavioral activity, mental state, fur, urine and feces, food (water) intake (Wistar rats; rat, in vivo): all normal
hematology, blood biochemistry examination and each organ coefficient vs control group (Wistar rats; rat, in vivo): no obvious difference
rats with obvious elevation of the liver function index ALT (Wistar rats; rat, in vivo): 2 rats
solubility thermodynamic at 24 h [6]: 72.9 mg/mL
step-down error number vs model group ([7]; Day 1 and Day 2): obviously reduced
error latency vs model group ([7]; Day 2): obviously prolonged
LD50 as multiple of the clinical daily dosage (rat): ~824.3 times
LD50 (Acute toxicity LD50, rat): 110 ± 9.1 mg/kg
